Measurements: the supplement of paper PMC10307832

Key:
Test in all cases: relative viability (nuclei count vs DMSO), 5 days (fraction); higher = more cells survive
Adavosertib + Tozasertib = compound: C=CCn1c(=O)c2cnc(Nc3ccc(N4CCN(C)CC4)cc3)nc2n1-c1cccc(C(C)(C)O)n1 [Adavosertib] + Cc1cc(Nc2cc(N3CCN(C)CC3)nc(Sc3ccc(NC(=O)C4CC4)cc3)n2)n[nH]1 [Tozasertib] (partner 0.1 µM)
Summary of the method: (§1)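 Lung cancer cell lines in 1536-well plates were dosed by pin tool the day after seeding, either with one drug alone or with a fixed anchor-drug dose plus five library-drug doses (not always all listed) in √10 steps. After 5 days, cells were fixed and their nuclei stained in one step (final 0.05% Triton X-100, 1% formaldehyde, 1 ug/ml Hoechst), then counted on 4× images. Relative viability is the nuclei count in treated wells divided by that in vehicle wells. Values are medians of duplicate plates.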

Nelarabine + Navitoclax = compound: COc1nc(N)nc2c1ncn2[C@@H]1O[C@H](CO)[C@@H](O)[C@@H]1O [Nelarabine] + CC1(C)CCC(c2ccc(Cl)cc2)=C(CN2CCN(c3ccc(C(=O)NS(=O)(=O)c4ccc(N[C@H](CCN5CCOCC5)CSc5ccccc5)c(S(=O)(=O)C(F)(F)F)c4)cc3)CC2)C1 [Navitoclax] (partner 0.5 µM)
Summary of the method: as §1

Nelarabine + Crizotinib = compound: COc1nc(N)nc2c1ncn2[C@@H]1O[C@H](CO)[C@@H](O)[C@@H]1O [Nelarabine] + C[C@@H](Oc1cc(-c2cnn(C3CCNCC3)c2)cnc1N)c1c(Cl)ccc(F)c1Cl [Crizotinib] (partner 1 µM)
Summary of the method: as §1

Nelarabine + Pemetrexed = compound: COc1nc(N)nc2c1ncn2[C@@H]1O[C@H](CO)[C@@H](O)[C@@H]1O [Nelarabine] + Nc1nc2[nH]cc(CCc3ccc(C(=O)N[C@@H](CCC(=O)O)C(=O)O)cc3)c2c(=O)[nH]1 [Pemetrexed] (partner 0.2 µM)
Summary of the method: as §1

| Cell Line | relative viability (Adavosertib + Tozasertib; first compound 0.01 µM) | relative viability (Adavosertib + Tozasertib; first compound 0.03162 µM) | relative viability (Adavosertib + Tozasertib; first compound 0.1 µM) | relative viability (Adavosertib + Tozasertib; first compound 0.3162 µM) | relative viability (Nelarabine + Navitoclax; first compound 0.01 µM) | relative viability (Nelarabine + Navitoclax; first compound 0.03162 µM) | relative viability (Nelarabine + Navitoclax; first compound 0.1 µM) | relative viability (Nelarabine + Navitoclax; first compound 0.3162 µM) | relative viability (Nelarabine + Navitoclax; first compound 1 µM) | relative viability (Nelarabine + Crizotinib; first compound 0.01 µM) | relative viability (Nelarabine + Crizotinib; first compound 0.03162 µM) | relative viability (Nelarabine + Crizotinib; first compound 0.1 µM) | relative viability (Nelarabine + Crizotinib; first compound 0.3162 µM) | relative viability (Nelarabine + Crizotinib; first compound 1 µM) | relative viability (Nelarabine + Pemetrexed; first compound 0.01 µM) | relative viability (Nelarabine + Pemetrexed; first compound 0.03162 µM) | relative viability (Nelarabine + Pemetrexed; first compound 0.1 µM) | relative viability (Nelarabine + Pemetrexed; first compound 0.3162 µM) | relative viability (Nelarabine + Pemetrexed; first compound 1 µM) |
| --- | --- | --- | --- | --- | --- | --- | --- | --- | --- | --- | --- | --- | --- | --- | --- | --- | --- | --- | --- |
| NCI-H520 | 0.406 | 0.437 | 0.347 | 0.411 | 1.32 | 0.999 | 1.28 | 1.18 | 1.37 | 0.607 | 0.519 | 0.871 | 1.07 | 0.851 | 0.768 | 0.584 | 0.687 | 0.842 | 0.786 |
| NCI-H1734 | 0.257 | 0.24 | 0.252 | 0.266 | 1.06 | 0.787 | 0.962 | 0.869 | 0.833 | 0.694 | 0.668 | 0.568 | 0.772 | 0.804 | 0.416 | 0.473 | 0.368 | 0.48 | 0.464 |
| NCI-H2009 | 0.787 | 0.749 | 1.05 | 0.749 | 1.26 | 1.18 | 1.19 | 1.2 | 1.18 | 1.12 | 0.99 | 0.971 | 1.08 | 1.05 | 1.09 | 1.05 | 1.07 | 1.08 | 1.11 |
| NCI-H1993 | 0.633 | 0.598 | 0.658 | 0.666 | 1.14 | 0.783 | 0.982 | 1.02 | 0.956 | 0.96 | 0.891 | 0.775 | 0.93 | 1.02 | 0.632 | 0.477 | 0.598 | 0.64 | 0.67 |
